Measured values published in ChEMBL document CHEMBL1201862, “PubChem BioAssay data set” (2004).
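Exposure lasted 48 hours, with cells grown in 96-well plates and compounds tested at five concentrations. The concentration for 50% growth inhibition is given as GI50.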 Calls of active or inactive are those of the source. Rule as the data show it: active = GI50 up to about 1.1 µM and inactive = higher.

Legend:
Experiment in all cases: DTP human tumour cell line panel, 48 h
ACHN = test system: ACHN
HOP-62 = test system: HOP-62
HOP-92 = test system: HOP-92
HT-29 = test system: HT-29
KM12 = test system: KM12
LOX IMVI = test system: LOX IMVI
LXFL 529 = test system: LXFL 529
M14 = test system: M14
M19-MEL = test system: M19-MEL
NCI-H23 = test system: NCI-H23
NCI-H522 = test system: NCI-H522
RPMI-8226 = test system: RPMI-8226
SK-MEL-5 = test system: SK-MEL-5
SW-620 = test system: SW-620
UO-31 = test system: UO-31
Hs-578T = test system: Hs-578T
MDA-N = test system: MDA-N
PC-3 = test system: PC-3
T47D = test system: T47D

Measured: GI50

COc1ccc(NC(=O)CC(=O)N2N=C(N(CCC#N)c3ccccc3Cl)CC2c2ccccc2)cc1 (stereo not given)
inactive: ACHN > 100 µM | HOP-62 > 100 µM | HOP-92 > 100 µM | HT-29 > 100 µM | KM12 > 100 µM | LOX IMVI > 100 µM | LXFL 529 > 100 µM | M14 > 100 µM | M19-MEL > 100 µM | NCI-H23 > 100 µM | NCI-H522 > 100 µM | RPMI-8226 > 100 µM | SK-MEL-5 > 100 µM | SW-620 > 100 µM | UO-31 > 100 µM

O=C(c1nc2ccc(Cl)cc2[nH]c1=O)C(O)c1cccc([N+](=O)[O-])c1 (stereo not given)
inactive: ACHN 64.3 µM | HOP-62 > 100 µM | HOP-92 > 100 µM | HT-29 16.3 µM | KM12 57 µM | LOX IMVI 18.5 µM | LXFL 529 > 100 µM | M14 > 100 µM | M19-MEL > 100 µM | NCI-H23 > 100 µM | NCI-H522 16.2 µM | RPMI-8226 9.66 µM | SK-MEL-5 48.6 µM | UO-31 80.9 µM

N#CC1CCCCCCCCCCC(=O)N(CCCl)C1=O (stereo not given)
inactive: ACHN > 100 µM | HOP-62 > 100 µM | HOP-92 > 100 µM | HT-29 > 100 µM | KM12 > 100 µM | LOX IMVI > 100 µM | LXFL 529 > 100 µM | M14 > 100 µM | M19-MEL > 100 µM | NCI-H23 > 100 µM | NCI-H522 > 100 µM | RPMI-8226 > 100 µM | SK-MEL-5 > 100 µM | SW-620 > 100 µM | UO-31 > 100 µM

COC(=O)C1=C(C(=O)OC)C(C(=O)OC)C(C(=O)OC)C(C(=O)OC)(C(=O)OC)C(C(=O)OC)=C1C(=O)OC (stereo not given)
inactive: ACHN 14.7 µM | HOP-62 32.3 µM | HOP-92 6.89 µM | HT-29 13.3 µM | Hs-578T 34.5 µM | KM12 17.1 µM | LOX IMVI 13.5 µM | LXFL 529 9.73 µM | M14 15.1 µM | M19-MEL 12.8 µM | MDA-N 17.1 µM | NCI-H23 18.6 µM | NCI-H522 1.96 µM | PC-3 16.5 µM | RPMI-8226 2.24 µM | SK-MEL-5 17.2 µM | SW-620 5.08 µM | T47D 21.9 µM | UO-31 16.3 µM

Cn1cnc([N+](=O)[O-])c1Sc1nnc(C(F)(F)F)n1C
inactive: ACHN 23.6 µM | HOP-62 > 100 µM | HOP-92 16 µM | HT-29 35.7 µM | KM12 > 100 µM | LOX IMVI 15.3 µM | LXFL 529 14.2 µM | M14 17.4 µM | M19-MEL 18.9 µM | NCI-H23 37.5 µM | NCI-H522 10.4 µM | RPMI-8226 19.7 µM | SK-MEL-5 32.6 µM | SW-620 18.6 µM | UO-31 26.5 µM

O=C(N/C(=C\c1cc(Cl)ccc1Cl)c1nc2cc(Cl)ccc2[nH]1)c1ccccc1
inactive: ACHN 22.5 µM | HOP-62 18 µM | HOP-92 11.6 µM | HT-29 16.4 µM | KM12 15.4 µM | LOX IMVI 13.6 µM | LXFL 529 13.6 µM | M14 17.1 µM | M19-MEL 16 µM | NCI-H23 13 µM | NCI-H522 12.4 µM | RPMI-8226 12.2 µM | SK-MEL-5 13.2 µM | SW-620 16.9 µM | UO-31 11.7 µM

O=C1C(Cl)=C(NCCOCCO)C(=O)c2c(O)ccc(O)c21
inactive: ACHN 15.4 µM | HOP-62 20 µM | HOP-92 24.3 µM | HT-29 3.08 µM | KM12 3.32 µM | LOX IMVI 3.61 µM | LXFL 529 7.62 µM | M14 11.2 µM | M19-MEL 1.81 µM | NCI-H23 1.88 µM | NCI-H522 1.98 µM | RPMI-8226 3.1 µM | SK-MEL-5 1.96 µM | SW-620 3.55 µM | UO-31 16 µM

COc1cc(C=C2C(=O)OC(C)(C)OC2=O)cc(OC)c1OC
inactive: ACHN > 100 µM | HOP-92 > 100 µM | HT-29 > 100 µM | KM12 > 100 µM | LOX IMVI > 100 µM | LXFL 529 > 100 µM | M14 > 100 µM | M19-MEL > 100 µM | NCI-H23 > 100 µM | NCI-H522 > 100 µM | RPMI-8226 > 100 µM | SK-MEL-5 > 100 µM | SW-620 > 100 µM | UO-31 > 100 µM

C/C(CC(=O)Nc1ccc(C)cc1C)=N/N=C(N)N
inactive: ACHN > 100 µM | HOP-62 > 100 µM | HOP-92 > 100 µM | HT-29 > 100 µM | KM12 > 100 µM | LOX IMVI > 100 µM | LXFL 529 > 100 µM | M14 > 100 µM | M19-MEL > 100 µM | NCI-H23 > 100 µM | NCI-H522 > 100 µM | RPMI-8226 > 100 µM | SK-MEL-5 > 100 µM | SW-620 > 100 µM | UO-31 > 100 µM

O=C(c1cccs1)N(C(=S)N1CCN(c2ccccn2)CC1)c1ccccc1
inactive: ACHN > 100 µM | HOP-62 > 100 µM | HOP-92 > 100 µM | HT-29 > 100 µM | KM12 > 100 µM | LOX IMVI > 100 µM | LXFL 529 39.4 µM | M14 76.7 µM | M19-MEL 81.1 µM | NCI-H23 > 100 µM | NCI-H522 36.2 µM | RPMI-8226 > 100 µM | SK-MEL-5 41.6 µM | SW-620 > 100 µM | UO-31 39.2 µM

O=C(O)C(CO)NC(=O)n1c2ccccc2c2ccccc21 (stereo not given)
inactive: ACHN > 100 µM | HOP-62 > 100 µM | HOP-92 > 100 µM | HT-29 > 100 µM | KM12 > 100 µM | LOX IMVI > 100 µM | LXFL 529 > 100 µM | M19-MEL > 100 µM | NCI-H23 > 100 µM | NCI-H522 > 100 µM | RPMI-8226 > 100 µM | SK-MEL-5 > 100 µM | SW-620 > 100 µM

CC(=O)NC1=C(N)C(=O)c2ccccc2C1=O
inactive: ACHN > 100 µM | HOP-62 > 100 µM | HOP-92 > 100 µM | HT-29 65.8 µM | KM12 > 100 µM | LOX IMVI 15.3 µM | LXFL 529 45 µM | M14 43.6 µM | M19-MEL 19.4 µM | NCI-H23 59.2 µM | NCI-H522 79.4 µM | RPMI-8226 60 µM | SK-MEL-5 30.6 µM | SW-620 14.9 µM | UO-31 > 100 µM

CC1=C(C(=O)Nc2ccccc2C)C(c2ccco2)C(C(=O)Nc2ccccc2C)=C(C)N1C
inactive: ACHN > 100 µM | HOP-62 > 100 µM | HOP-92 > 100 µM | HT-29 > 100 µM | KM12 > 100 µM | LOX IMVI > 100 µM | LXFL 529 > 100 µM | M14 > 100 µM | M19-MEL > 100 µM | NCI-H23 > 100 µM | NCI-H522 > 100 µM | RPMI-8226 > 100 µM | SK-MEL-5 > 100 µM | SW-620 > 100 µM | UO-31 > 100 µM
